Source: paper PMC10389763, “BlaPSZ-1, a novel AmpC gene identified from a Pantoea isolate” (Frontiers in Microbiology, 2023)

Biological target: T1, PSZ-1 (AmpC β-lactamase)
T1 construct: gene blaPSZ-1; recombinant PSZ-1 from pCold I in E. coli BL21, His-tag removed with thrombin
Assay: inhibition of nitrocefin hydrolysis, […] min preincubation, […]°C
Type: biochemical, Pantoea endophytica

| Structure (SMILES) | IC50 [µM] |
| --- | --- |
| C[C@]1(Cn2ccnn2)[C@H](C(=O)O)N2C(=O)C[C@H]2S1(=O)=O [tazobactam] | 7.96 |
| NC(=O)[C@@H]1CC[C@@H]2CN1C(=O)N2OS(=O)(=O)O [avibactam] | 0.0555 |
